Source: ChEMBL document CHEMBL5653615 (J Biol Chem, 2013)

How the values were obtained:
[1] = biological target: Macrophage-stimulating protein receptor (Homo sapiens) (UniProt Q04912); assay: Inhibition of human MST1R at 18.6 nM by HotSpot assay relative to control
Homo sapiens = species: Homo sapiens; assay: Inhibition of human CDK2/cyclin A at 18.6 nM by HotSpot assay relative to control
[2] = biological target: Hepatocyte growth factor receptor (Homo sapiens) (UniProt P08581); assay: Inhibition of human c-MET at 18.6 nM by HotSpot assay relative to control
[3] = biological target: Non-receptor tyrosine-protein kinase TYK2 (Homo sapiens) (UniProt P29597); assay: Inhibition of human TYK2 at 18.6 nM by HotSpot assay relative to control
[4] = biological target: Calcium/calmodulin-dependent protein kinase type 1 (Homo sapiens) (UniProt Q14012); assay: Inhibition of human CAMK1a at 1.82 nM by HotSpot assay relative to control
[5] = biological target: T1, Serine/threonine-protein kinase D1 (Homo sapiens) (UniProt Q15139); assay: Inhibition of human PRKD1 at 1.82 nM by HotSpot assay relative to control
T1 sequence (whole entry): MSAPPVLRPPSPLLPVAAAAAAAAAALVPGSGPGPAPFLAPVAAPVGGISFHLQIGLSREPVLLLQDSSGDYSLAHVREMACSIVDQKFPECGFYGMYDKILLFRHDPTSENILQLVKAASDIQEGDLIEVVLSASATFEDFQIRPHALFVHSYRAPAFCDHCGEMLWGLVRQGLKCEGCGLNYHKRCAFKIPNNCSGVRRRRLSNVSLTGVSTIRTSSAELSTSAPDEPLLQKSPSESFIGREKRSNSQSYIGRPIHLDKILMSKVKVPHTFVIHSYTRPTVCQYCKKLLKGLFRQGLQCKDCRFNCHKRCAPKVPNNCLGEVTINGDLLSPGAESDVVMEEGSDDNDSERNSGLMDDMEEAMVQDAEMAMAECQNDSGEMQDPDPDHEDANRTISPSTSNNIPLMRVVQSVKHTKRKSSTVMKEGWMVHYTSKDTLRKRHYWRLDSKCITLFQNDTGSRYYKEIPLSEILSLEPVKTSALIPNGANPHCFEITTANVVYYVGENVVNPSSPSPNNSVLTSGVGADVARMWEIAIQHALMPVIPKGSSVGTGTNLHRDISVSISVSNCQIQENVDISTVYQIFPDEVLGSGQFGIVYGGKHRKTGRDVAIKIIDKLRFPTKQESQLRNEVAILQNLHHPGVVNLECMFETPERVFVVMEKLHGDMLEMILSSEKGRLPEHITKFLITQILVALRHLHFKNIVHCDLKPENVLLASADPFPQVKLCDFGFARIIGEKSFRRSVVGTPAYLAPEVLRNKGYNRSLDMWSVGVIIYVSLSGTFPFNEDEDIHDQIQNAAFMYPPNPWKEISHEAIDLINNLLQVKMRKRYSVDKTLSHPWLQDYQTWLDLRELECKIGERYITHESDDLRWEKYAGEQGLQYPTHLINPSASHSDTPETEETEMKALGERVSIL

[6] = biological target: Receptor-interacting serine/threonine-protein kinase 2 (Homo sapiens) (UniProt O43353); assay: Inhibition of human RIPK2 at 1.82 nM by HotSpot assay relative to control
[7] = biological target: T2, Phosphorylase b kinase gamma catalytic chain, liver/testis isoform (Homo sapiens) (UniProt P15735); assay: Inhibition of human PHKg2 at 1.82 nM by HotSpot assay relative to control
T2 sequence (whole entry): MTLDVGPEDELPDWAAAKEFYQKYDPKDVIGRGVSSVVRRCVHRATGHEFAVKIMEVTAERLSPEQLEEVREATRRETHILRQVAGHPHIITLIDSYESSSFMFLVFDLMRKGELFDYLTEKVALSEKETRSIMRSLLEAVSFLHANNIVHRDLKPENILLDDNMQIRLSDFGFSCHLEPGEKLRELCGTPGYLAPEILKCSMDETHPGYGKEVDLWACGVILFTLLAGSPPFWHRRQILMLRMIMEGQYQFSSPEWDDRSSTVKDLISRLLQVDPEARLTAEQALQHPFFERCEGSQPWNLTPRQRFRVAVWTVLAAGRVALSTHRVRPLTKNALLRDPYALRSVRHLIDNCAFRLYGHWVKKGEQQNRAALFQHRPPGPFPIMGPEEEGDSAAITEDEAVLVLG

[8] = biological target: T3, Inhibitor of nuclear factor kappa-B kinase subunit epsilon (Homo sapiens) (UniProt Q14164); conditions: dose 1.82 nM
T3 sequence (whole entry): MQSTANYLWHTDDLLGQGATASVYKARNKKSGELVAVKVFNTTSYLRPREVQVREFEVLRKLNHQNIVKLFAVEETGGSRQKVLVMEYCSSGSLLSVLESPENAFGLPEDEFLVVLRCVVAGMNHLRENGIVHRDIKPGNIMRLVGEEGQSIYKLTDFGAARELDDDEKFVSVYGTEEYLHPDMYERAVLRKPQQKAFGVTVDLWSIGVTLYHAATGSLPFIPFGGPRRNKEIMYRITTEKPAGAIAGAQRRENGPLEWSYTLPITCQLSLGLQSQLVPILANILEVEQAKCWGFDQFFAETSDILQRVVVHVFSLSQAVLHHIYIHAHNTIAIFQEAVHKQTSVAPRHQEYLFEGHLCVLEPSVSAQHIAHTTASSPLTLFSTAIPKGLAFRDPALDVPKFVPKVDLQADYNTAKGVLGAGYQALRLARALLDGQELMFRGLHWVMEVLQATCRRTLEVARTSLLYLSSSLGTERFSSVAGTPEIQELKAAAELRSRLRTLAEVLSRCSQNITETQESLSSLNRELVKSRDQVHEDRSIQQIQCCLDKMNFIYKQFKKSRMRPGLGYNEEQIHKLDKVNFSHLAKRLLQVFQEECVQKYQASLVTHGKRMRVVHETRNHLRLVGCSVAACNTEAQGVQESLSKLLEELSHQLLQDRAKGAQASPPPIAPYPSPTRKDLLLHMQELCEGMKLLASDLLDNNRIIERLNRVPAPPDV
Description: Inhibition of human IKKe at 1.82 nM by HotSpot assay relative to control

Sequence of Receptor-interacting serine/threonine-protein kinase 2 (Homo sapiens) (O43353 whole entry, canonical isoform): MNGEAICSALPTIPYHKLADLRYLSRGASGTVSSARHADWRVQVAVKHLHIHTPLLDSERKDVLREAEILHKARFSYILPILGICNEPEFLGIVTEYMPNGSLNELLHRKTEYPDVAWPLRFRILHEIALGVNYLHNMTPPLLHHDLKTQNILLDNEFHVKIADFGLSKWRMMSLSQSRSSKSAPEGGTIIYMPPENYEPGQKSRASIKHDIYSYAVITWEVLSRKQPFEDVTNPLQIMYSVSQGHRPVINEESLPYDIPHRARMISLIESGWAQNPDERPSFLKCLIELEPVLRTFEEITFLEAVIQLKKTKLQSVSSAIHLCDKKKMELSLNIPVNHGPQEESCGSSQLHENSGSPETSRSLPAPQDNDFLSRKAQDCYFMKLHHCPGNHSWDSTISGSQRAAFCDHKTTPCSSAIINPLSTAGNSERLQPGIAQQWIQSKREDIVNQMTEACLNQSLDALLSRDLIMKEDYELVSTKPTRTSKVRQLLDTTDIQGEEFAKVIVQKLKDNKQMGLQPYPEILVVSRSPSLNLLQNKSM
Sequence of Macrophage-stimulating protein receptor (Homo sapiens) (Q04912 25-304 limits assumed): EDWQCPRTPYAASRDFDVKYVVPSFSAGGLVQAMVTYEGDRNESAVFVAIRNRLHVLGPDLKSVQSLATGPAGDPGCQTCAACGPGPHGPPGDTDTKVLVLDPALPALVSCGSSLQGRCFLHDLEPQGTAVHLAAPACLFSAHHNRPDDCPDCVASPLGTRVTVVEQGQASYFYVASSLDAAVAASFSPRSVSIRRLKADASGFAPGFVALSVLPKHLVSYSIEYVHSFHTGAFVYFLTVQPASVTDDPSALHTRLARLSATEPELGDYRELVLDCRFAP
Sequence of Macrophage-stimulating protein receptor (Homo sapiens) (Q04912 310-1400 limits assumed): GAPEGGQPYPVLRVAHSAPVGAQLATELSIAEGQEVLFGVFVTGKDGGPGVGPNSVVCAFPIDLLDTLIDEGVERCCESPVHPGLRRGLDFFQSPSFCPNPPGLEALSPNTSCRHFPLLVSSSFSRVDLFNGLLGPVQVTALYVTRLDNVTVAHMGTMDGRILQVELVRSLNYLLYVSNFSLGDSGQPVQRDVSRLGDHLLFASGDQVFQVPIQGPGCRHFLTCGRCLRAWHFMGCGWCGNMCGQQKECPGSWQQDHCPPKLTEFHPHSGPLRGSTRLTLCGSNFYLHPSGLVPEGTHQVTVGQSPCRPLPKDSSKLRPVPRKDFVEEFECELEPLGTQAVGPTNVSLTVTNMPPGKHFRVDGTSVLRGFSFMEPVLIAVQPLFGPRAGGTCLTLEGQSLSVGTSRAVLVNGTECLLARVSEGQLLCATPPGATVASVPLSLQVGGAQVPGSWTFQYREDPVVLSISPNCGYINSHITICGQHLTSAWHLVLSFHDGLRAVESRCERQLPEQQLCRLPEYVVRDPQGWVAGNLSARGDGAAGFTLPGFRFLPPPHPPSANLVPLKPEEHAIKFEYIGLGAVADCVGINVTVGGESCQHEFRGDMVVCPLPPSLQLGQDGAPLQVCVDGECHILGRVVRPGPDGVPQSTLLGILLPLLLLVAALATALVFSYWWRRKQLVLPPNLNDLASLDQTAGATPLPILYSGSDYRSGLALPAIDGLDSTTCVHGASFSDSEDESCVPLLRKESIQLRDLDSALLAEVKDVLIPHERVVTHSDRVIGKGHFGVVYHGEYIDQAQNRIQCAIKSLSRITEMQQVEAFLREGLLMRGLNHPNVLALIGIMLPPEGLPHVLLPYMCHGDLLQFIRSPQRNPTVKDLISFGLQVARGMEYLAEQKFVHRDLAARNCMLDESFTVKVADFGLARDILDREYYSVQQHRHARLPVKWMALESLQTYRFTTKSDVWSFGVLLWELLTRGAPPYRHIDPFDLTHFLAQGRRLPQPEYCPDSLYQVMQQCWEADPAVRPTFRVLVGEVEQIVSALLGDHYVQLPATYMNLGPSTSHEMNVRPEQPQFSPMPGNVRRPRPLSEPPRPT
Sequence of Non-receptor tyrosine-protein kinase TYK2 (Homo sapiens) (P29597 whole entry): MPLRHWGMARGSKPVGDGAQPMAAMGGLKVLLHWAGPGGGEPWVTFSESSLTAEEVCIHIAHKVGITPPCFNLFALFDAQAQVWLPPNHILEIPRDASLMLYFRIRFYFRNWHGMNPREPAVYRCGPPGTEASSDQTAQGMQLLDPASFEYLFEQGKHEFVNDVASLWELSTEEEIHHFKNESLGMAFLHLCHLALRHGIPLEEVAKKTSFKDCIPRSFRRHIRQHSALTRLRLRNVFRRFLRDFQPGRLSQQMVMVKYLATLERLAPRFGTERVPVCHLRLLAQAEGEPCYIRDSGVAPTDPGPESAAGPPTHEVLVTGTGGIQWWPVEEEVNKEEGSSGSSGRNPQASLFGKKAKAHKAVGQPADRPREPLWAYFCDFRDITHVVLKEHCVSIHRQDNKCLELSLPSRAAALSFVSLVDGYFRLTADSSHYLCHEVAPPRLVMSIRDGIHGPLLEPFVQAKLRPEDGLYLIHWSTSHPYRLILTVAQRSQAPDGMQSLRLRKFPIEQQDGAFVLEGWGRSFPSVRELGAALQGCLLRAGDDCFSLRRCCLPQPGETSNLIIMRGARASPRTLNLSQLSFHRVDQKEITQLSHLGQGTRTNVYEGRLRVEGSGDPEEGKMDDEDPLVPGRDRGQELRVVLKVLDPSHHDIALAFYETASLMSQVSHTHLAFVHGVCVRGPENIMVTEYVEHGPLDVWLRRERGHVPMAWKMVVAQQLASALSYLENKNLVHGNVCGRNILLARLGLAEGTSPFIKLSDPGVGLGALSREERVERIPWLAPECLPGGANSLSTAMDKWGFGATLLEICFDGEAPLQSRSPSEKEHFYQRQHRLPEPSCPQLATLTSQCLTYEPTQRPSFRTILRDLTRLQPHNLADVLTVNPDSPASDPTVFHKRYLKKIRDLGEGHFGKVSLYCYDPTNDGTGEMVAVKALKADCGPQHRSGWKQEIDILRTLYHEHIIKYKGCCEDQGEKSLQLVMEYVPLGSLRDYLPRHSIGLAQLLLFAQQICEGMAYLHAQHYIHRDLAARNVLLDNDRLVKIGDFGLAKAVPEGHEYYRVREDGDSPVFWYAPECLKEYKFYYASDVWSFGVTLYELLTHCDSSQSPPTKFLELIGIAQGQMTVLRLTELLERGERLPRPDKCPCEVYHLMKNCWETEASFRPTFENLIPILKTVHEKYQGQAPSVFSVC
Sequence of Calcium/calmodulin-dependent protein kinase type 1 (Homo sapiens) (Q14012 whole entry, looked up): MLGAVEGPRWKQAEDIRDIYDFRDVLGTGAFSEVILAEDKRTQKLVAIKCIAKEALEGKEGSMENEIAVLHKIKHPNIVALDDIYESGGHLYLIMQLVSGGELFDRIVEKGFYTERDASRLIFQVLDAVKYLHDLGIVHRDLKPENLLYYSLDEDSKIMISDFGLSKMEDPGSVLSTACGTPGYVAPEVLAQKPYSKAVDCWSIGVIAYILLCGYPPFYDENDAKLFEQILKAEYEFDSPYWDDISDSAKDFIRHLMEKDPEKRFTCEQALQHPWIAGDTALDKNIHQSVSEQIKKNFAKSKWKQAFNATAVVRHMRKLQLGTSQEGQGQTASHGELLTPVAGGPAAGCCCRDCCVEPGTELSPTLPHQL
Sequence of Hepatocyte growth factor receptor (Homo sapiens) (P08581 whole entry): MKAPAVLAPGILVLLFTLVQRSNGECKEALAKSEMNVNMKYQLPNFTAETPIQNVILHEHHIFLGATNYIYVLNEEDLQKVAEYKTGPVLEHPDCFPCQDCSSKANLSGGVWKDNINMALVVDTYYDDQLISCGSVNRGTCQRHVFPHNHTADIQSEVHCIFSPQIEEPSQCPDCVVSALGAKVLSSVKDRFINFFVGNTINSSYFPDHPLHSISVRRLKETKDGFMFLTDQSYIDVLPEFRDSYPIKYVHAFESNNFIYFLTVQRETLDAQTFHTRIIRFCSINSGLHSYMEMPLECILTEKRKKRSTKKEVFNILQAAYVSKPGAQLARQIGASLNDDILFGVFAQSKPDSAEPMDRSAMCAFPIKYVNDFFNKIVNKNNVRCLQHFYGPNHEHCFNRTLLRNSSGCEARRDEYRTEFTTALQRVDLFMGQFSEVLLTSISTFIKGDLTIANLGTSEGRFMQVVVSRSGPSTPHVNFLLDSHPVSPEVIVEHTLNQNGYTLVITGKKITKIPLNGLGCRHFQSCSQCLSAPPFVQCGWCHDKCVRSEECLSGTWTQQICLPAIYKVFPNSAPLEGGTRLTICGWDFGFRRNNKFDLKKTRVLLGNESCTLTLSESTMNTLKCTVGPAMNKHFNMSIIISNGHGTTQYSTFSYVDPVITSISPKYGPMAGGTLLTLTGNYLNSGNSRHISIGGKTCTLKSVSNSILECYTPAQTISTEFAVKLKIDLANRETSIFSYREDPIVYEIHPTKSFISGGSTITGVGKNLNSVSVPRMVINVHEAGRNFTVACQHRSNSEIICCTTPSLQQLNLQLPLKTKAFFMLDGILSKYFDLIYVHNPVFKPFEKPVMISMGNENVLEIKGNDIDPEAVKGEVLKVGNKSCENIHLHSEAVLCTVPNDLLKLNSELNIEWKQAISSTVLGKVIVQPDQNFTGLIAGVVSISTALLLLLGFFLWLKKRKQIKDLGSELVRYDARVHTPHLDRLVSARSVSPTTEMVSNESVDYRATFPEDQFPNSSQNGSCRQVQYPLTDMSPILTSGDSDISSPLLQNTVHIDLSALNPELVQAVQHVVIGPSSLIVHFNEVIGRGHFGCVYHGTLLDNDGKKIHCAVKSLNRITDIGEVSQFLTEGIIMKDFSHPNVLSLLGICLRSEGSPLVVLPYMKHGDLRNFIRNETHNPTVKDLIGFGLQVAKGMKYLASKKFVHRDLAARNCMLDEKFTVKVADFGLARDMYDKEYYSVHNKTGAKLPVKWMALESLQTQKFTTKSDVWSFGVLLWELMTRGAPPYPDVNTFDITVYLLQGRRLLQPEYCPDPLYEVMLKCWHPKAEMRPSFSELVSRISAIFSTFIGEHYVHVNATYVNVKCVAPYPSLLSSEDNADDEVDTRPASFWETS

Row | SMILES | inhibition [1] [%] | inhibition (Homo sapiens) [%] | inhibition [2] [%] | inhibition [3] [%] | inhibition [4] [%] | inhibition [5] [%] | inhibition [6] [%] | inhibition [7] [%] | inhibition [8] [%]
1 | C[C@]1(O)C[C@@H](c2nc(-c3ccc4ccc(-c5ccccc5)nc4c3)c3c(N)nccn32)C1 | 0.1 | -1.46 | -4.38 | -4.07 | – | – | – | – | –
2 | C[C@@]1(C(=O)Nc2ccc(F)nc2)CCCN1c1nc(Nc2cc(C3CC3)n[nH]2)c2cccn2n1 | – | – | – | – | 2.2 | -5.1 | 6.56 | -4.64 | 5.87
